This note sets out measurements from patent publication US10981932B2, “Macrocyclic indole derivatives” (Bayer Aktiengesellschaft, priority 2016, dated 2021).

In one data set the target is MCL-1 (Homo sapiens, UniProt Q07820). Briefly: Protein-protein interaction assay MCL-1/Noxa BH3 peptide (MCL-1 assay), TR-FRET. In kind it is binding. The following applies: MBP-MCL-1 / Noxa BH3-derived peptide, median. Put shortly: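 Inhibition values were normalized between DMSO controls with all reagents and controls lacking MCL-1. The binding competition used 1 nM MBP-MCL-1 in pH 7 Tris buffer containing 50 mM KF and 100 mM NaCl, with a 10 min compound preincubation at 22 °C.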
Sequence of MCL-1 (Q07820 whole entry): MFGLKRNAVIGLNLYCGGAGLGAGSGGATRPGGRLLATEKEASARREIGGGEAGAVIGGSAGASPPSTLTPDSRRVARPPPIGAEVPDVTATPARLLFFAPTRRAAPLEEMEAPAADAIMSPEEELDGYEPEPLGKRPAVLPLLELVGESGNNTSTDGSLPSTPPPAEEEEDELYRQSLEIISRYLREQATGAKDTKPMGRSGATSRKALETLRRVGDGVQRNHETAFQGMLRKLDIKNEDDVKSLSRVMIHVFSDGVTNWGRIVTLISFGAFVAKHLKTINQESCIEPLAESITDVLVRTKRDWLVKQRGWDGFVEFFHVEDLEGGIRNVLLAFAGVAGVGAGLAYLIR
In general terms: In TR-FRET formats the signal depends on donor and acceptor labels being close together.

Data set [1] has as its system SUDHL5. Briefly: Induction of caspase-3/7 activity (Caspase-Glo 3/7), SUDHL5. It is filed as cell-based. The settings on record: caspase-3/7 induction, SUDHL5 cells, 3 h treatment; median. Put shortly:
(§1)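 Apoptosis induction measured as caspase-3/7 activity (Caspase-Glo 3/7) in DLBCL lines after 3 h treatment at 37 °C; EC50 derived relative to the reference compound's maximal induction, with C0 fixed at 1.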

Data set [2] deals with SUDHL10. Briefly: Induction of caspase-3/7 activity (Caspase-Glo 3/7), SUDHL10. It is filed as cell-based. The following applies: caspase-3/7 induction, SUDHL10 cells, 3 h treatment; median. Put shortly:
as §1

Data set [3] concerns SUDHL5. In words: Anti-proliferative effect (CellTiter-Glo, 72 h), SUDHL5. It is filed as cell-based. The settings on record: SUDHL5 cells, antiproliferation, median, read-out: Antiproli SUDHL5 [M] (median). Put shortly: (§2)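 Luminescence from CellTiter-Glo, read 10 min after reagent addition, reports viable cell content after 72 h of compound treatment at 37 °C. A reference plate read at day 0 gives the starting baseline.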

For data set [4], the system named is SUDHL10. Briefly: Anti-proliferative effect (CellTiter-Glo, 72 h), SUDHL10. In kind it is cell-based. The settings on record: SUDHL10 cells, antiproliferation, median, read-out: Antiproli SUDHL10 [M] (median). Put shortly:
as §2
(ATP-based viability assays read luminescence as a measure of living cells.)

For the next data set, the system named is A2780. Briefly: Anti-proliferative effect (CellTiter-Glo, 72 h), A2780. It is filed as cell-based. The settings on record: A2780 cells, median, read-out: IC50 antiproliferation assay A2780 [M] (median). Put shortly:
as §2

Data set [5] deals with SUDHL5. In words: Induction of cytotoxicity (CellTiter-Glo, 5 h), SUDHL5. The settings on record: read-out: Cytotox SUDHL5 [M] (median), SUDHL5 cells, cytotoxicity induction, CellTiter-Glo, median.
For data set [6], the system named is SUDHL10. In words: Induction of cytotoxicity (CellTiter-Glo, 5 h), SUDHL10. The following applies: read-out: Cytotox SUDHL10 [M] (median), SUDHL10 cells, cytotoxicity induction, CellTiter-Glo, median.

Structures can show the parent of a compound that is named as a salt. Bounds are passed on as bounds.

For orientation: EC50 means the concentration giving half of the maximal effect. A high value points to weaker potency. `Cn1nc(CCN2CCOCC2)c2c1COCCCCn1c(C(=O)O)c(CCCOc3cccc4ccccc34)c3cccc-2c31` (single isomer, unassigned; enantiomer 2) [Example 152, 1-methyl-3-(2-(morpholin-4-yl)ethyl-7-[3-(naphthalen-1-yloxy)propyl]-11,10,11,12,13,15-hexahydropyrazolo[4′,3′:9,10][1,6]oxazacycloundecino[8,7,6-hi]indole-8-carboxylic acid-N-ethylethanamine Salt (Enantiomer 2)]: the IC50 was 0.379 µM on MCL-1; above 3.3e-05 M in the data set with SUDHL5 [3] (72 h incubation); 1.76e-05 M with SUDHL10 [4] (72 h incubation); above 3.3e-05 M with A2780; above 3.3e-05 M in the data set on SUDHL5 [5] (5 h incubation); above 3.3e-05 M with SUDHL10 [6] (5 h incubation). Further, the EC50 in the data set on SUDHL5 [1] and in the data set on SUDHL10 [2] was above 33 µM in each case.

As for `Cc1nn(CC(F)(F)F)c2c1-c1cccc3c(CCCOc4cccc5c4CCCC5)c(C(=O)O)n(c13)CCCCOC2` (single isomer, unassigned; enantiomer 2) [Example 163, 3-methyl-7-[3-(5,6,7,8-tetrahydronaphthalen-1-yloxy)propyl]-1-(2,2,2-trifluoroethyl)-1,10,11,12,13,15-hexahydropyrazolo[4′,3′:9,10][1,6]oxazacycloundecino[8,7,6-hi]indole-8-carboxylic acid-N-ethylethanamine Salt (Enantiomer 2)], the IC50 is 0.637 µM at MCL-1; 1.17e-05 M in the data set with SUDHL5 [3] (72 h incubation); 6.35e-06 M in the data set with SUDHL10 [4] (Homo sapiens, SU-DHL10, 72 h, 72 h incubation); 2.75e-05 M with A2780; 2.93e-05 M with SUDHL5 [5] (5 h incubation); above 3.3e-05 M in the data set with SUDHL10 [6] (5 h incubation). For the same molecule, the EC50 in the data set with SUDHL5 [1] and in the data set with SUDHL10 [2] was above 33 µM throughout.

Consider `Cn1nc(CN2CC(F)(F)C2)c2c1COCCCCn1c(C(=O)O)c(CCCOc3cccc4ccccc34)c3cccc-2c31` (single isomer, unassigned; enantiomer 2) [Example 182, 3-[(3,3-difluoroazetidin-1-yl)methyl]-1-methyl-7-[3-(naphthalen-1-yloxy)propyl]-1,10,11,12,13,15-hexahydropyrazolo[4′,3′:9,10][1,6]oxazacycloundecino[8,7,6-hi]indole-8-carboxylic acid-N-ethylethanamine Salt (Enantiomer 2)], for which the IC50 against MCL-1 was 0.122 µM; in the data set with SUDHL5 [3] (72 h incubation), 1.91e-05 M; in the data set with SUDHL10 [4] (72 h incubation) it was 6.02e-06 M; with A2780 it was 1.75e-05 M; in the data set on SUDHL5 [5] (5 h incubation), above 3.3e-05 M; with SUDHL10 [6] (5 h incubation), above 3.3e-05 M. The half-maximal effective concentration (EC50) in the data set on SUDHL5 [1] and with SUDHL10 [2] was above 33 µM in each case.

Consider `COCc1nn(C)c2c1-c1cccc3c(CCCOc4cccc5ccccc45)c(C(=O)O)n(c13)CCCCN(C)C2` (single isomer, unassigned; enantiomer 2) [Example 185, 3-(methoxymethyl)-1,14-dimethyl-7-[3-(naphthalen-1-yloxy)propyl]-10,11,12,13,14,15-hexahydro-1H-pyrazolo[3′,4′:8,9][1,6]diazacycloundecino[10,11,1-hi]indole-8-carboxylic acid —N-ethylethanamine Salt (Enantiomer 2)], for which the IC50 at MCL-1 is 0.211 µM; with SUDHL5 [3] (72 h incubation), 1.98e-05 M; with SUDHL10 [4] (72 h incubation), 8.53e-06 M; with A2780, 1.88e-05 M; in the data set with SUDHL5 [5] (5 h incubation), 2.75e-05 M; in the data set on SUDHL10 [6] (5 h incubation), above 3.3e-05 M. For the same molecule, the EC50 in the data set on SUDHL5 [1] and with SUDHL10 [2] was above 33 µM throughout.

As to `CCCc1nn(C)c2c1-c1c(C)ccc3c(CCCOc4cccc5ccccc45)c(C(=O)O)n(c13)CCCCOC2` (single isomer, unassigned; enantiomer 2) [Example 189, 1,4-dimethyl-7-[3-(naphthalen-1-yloxy)propyl]-3-propyl-1,10,11,12,13,15-hexahydropyrazolo[4′3′:9,10][1,6]oxazacycloundecino[8,7,6-hi]indole-8-caboxylic acid-N-ethylethanamine Salt (Enantiomer 2)], the IC50 at MCL-1 is 0.142 µM; with SUDHL5 [3] (72 h incubation), 1.09e-05 M; in the data set with SUDHL10 [4] (72 h incubation) it was 2.01e-05 M; in the data set with A2780, 1.78e-05 M; with SUDHL5 [5] (5 h incubation) it was 2.86e-05 M; in the data set on SUDHL10 [6] (5 h incubation) it was above 3.3e-05 M. Also, the 50% effective concentration (EC50) in the data set on SUDHL5 [1] and with SUDHL10 [2] was above 33 µM throughout.

`Cc1c2c(nn1C)CCCCCCn1c(C(=O)O)c(CCCOc3cccc4ccccc34)c3cccc-2c31` (single isomer, unassigned; enantiomer 2) [Example 192, 2,3-dimethyl-7-[3-(1-naphthyloxy)propyl]-10,11,12,13,14,15-hexahydro-2H-pyrazolo[4′,3′:4,5]azacycloundecino[3,2,1-hi]indole-8-carboxylic acid-N-ethylethanamine Salt (Enantiomer 2)]: the IC50 at MCL-1 was 0.123 µM; with SUDHL5 [3] (72 h incubation) it was 2.03e-05 M; with SUDHL10 [4] (72 h incubation) it was 9.22e-06 M; with A2780, 1.8e-05 M; in the data set on SUDHL5 [5] (5 h incubation), above 3.3e-05 M; with SUDHL10 [6] (5 h incubation) it was above 3.3e-05 M. The 50% effective concentration (EC50) in the data set on SUDHL5 [1] and with SUDHL10 [2] was above 33 µM in each case.

With `Cn1nc2c(c1C(F)(F)F)-c1cccc3c(CCCOc4cccc5ccccc45)c(C(=O)O)n(c13)CCCCOC2` (single isomer, unassigned; enantiomer 2) [Example 195, 2-methyl-7-[3-(naphthalen-1-yloxy)propyl]-3-(trifluoromethyl)-2,10,11,12,13,15-hexahydropyrazolo[4′,3′:9,10][1,6]oxazacycloundecino[8,7,6-hi]indole-8-carboxylic Acid (Enantiomer 2)], the IC50 against MCL-1 is 0.0532 µM; in the data set on SUDHL5 [3] (72 h incubation), 5.84e-06 M; in the data set with SUDHL10 [4] (72 h incubation) it was 1.32e-05 M; in the data set with A2780, 1.27e-05 M; with SUDHL5 [5] (5 h incubation), above 3.3e-05 M; with SUDHL10 [6] (5 h incubation), above 3.3e-05 M. The EC50 in the data set on SUDHL5 [1] and in the data set on SUDHL10 [2] was above 33 µM each time.

As to `CCCc1nn(C)c2c1-c1c(C)ccc3c(CCCOc4cccc5ccccc45)c(C(=O)O)n(c13)CCCN(C)C2` (single isomer, unassigned; enantiomer 2) [Example 197, 7,9,12-trimethyl-1-[3-(naphthalen-1-yloxy)propyl]-1-propyl-4,5,6,7,8,9-hexahydropyrazolo[3′,4′:7,8][1,5]diazecino[9,10,1-hi]indole-2-carboxylic acid-N-ethylethanamine Salt (Enantiomer 2)], the IC50 against MCL-1 came out at 0.104 µM; with SUDHL5 [3] (72 h incubation), 1.78e-05 M; in the data set on SUDHL10 [4] (72 h incubation), 8.15e-06 M; with A2780, 1.49e-05 M; in the data set with SUDHL5 [5] (5 h incubation), 1.93e-05 M; in the data set with SUDHL10 [6] (5 h incubation), 1.55e-05 M. Further, the concentration giving a half-maximal response (EC50) in the data set on SUDHL5 [1] is 28.7 µM; in the data set on SUDHL10 [2], above 33 µM.

On to `CCc1nn(CCN2CCOCC2)c2c1-c1cccc3c(CCCOc4cccc5ccccc45)c(C(=O)O)n(c13)CCCCOC2` (single isomer, unassigned; enantiomer 2) [Example 200, 3-ethyl-1-[2-(morpholin-4-yl)ethyl]-7-[3-(naphthalen-1-yloxy)propyl]-1,10,11,12,13,15-hexahydropyrazolo[4′3′:9,10][1,6]oxazacycloundecino[8,7,6-hi]indole-carboxylic Acid (Enantiomer 2)], for which the IC50 came to 0.0248 µM against MCL-1; 1.87e-05 M with SUDHL5 [3] (72 h incubation); 1.12e-05 M in the data set on SUDHL10 [4] (72 h incubation); 2.57e-05 M in the data set on A2780; 2.41e-05 M in the data set on SUDHL5 [5] (5 h incubation); 1.99e-05 M with SUDHL10 [6] (5 h incubation). Besides, the EC50 was above 33 µM in the data set on SUDHL5 [1] and 18.8 µM in the data set with SUDHL10 [2].

With `COc1ccc(OCc2nn(C)c3c2-c2cccc4c(CCCOc5cccc6ccccc56)c(C(=O)O)n(c24)CCCCOC3)cc1` (single isomer, unassigned; enantiomer 2) [Example 321, 3-[(4-methoxyphenoxy)methyl]-1-methyl-7-[3(naphthalen-1 yloxy)propyl]-1,10,11,12,13,15-hexahydropyrazolo[4′,3′:9,10][1,6]oxazacycloundecino[8,7,6-hi]indole-8-carboxylic acid-N-ethylethanamine Salt (Enantiomer 2)], the IC50 stood at 0.639 µM against MCL-1; 1.22e-05 M in the data set with SUDHL5 [3] (72 h); 4.61e-06 M in the data set on SUDHL10 [4] (72 h); 1e-05 M with A2780; 2.97e-05 M with SUDHL5 [5] (5 h); 2.56e-05 M with SUDHL10 [6] (5 h). In addition, the concentration for a half-maximal effect (EC50) in the data set with SUDHL5 [1] is 30.3 µM; in the data set on SUDHL10 [2] it was above 33 µM.
